Calls of active or inactive are those of the source. The rule behind the calls is not given here.
Tests used:
[1] = molecular target: T1, Tyrosinase (Mus musculus) (UniProt P11344); assay: Inhibition of tyrosinase in mouse Melan-a cells assessed as decrease in L-DOPA Vmax by Lineweaver-Burk plot; format: cell-based
T1 sequence (whole entry): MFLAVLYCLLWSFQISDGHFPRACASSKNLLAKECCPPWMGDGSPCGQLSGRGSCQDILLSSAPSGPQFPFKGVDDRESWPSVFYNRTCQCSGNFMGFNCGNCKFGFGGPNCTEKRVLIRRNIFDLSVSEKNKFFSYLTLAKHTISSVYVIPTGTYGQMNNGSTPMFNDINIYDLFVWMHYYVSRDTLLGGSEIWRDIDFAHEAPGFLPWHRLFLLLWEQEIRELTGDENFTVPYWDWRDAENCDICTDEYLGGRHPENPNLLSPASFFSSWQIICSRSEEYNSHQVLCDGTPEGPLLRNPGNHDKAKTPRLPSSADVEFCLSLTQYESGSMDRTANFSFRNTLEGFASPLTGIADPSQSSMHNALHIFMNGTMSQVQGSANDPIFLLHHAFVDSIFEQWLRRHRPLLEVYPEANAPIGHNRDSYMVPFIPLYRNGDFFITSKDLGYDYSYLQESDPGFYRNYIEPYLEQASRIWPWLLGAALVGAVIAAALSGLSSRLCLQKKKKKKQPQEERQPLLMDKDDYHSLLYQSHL

Tyrosinase [2] = molecular target: T2, Tyrosinase (Mus musculus, UniProt P11344); assay: Inhibition of tyrosinase in mouse Melan-a cells assessed as decrease in L-DOPA Vmax at 120 uM by Lineweaver-Burk plot; format: cell-based
T2 sequence (P11344 whole entry): T1 sequence (whole entry)

Tyrosinase [3] = molecular target: T2, Tyrosinase; assay: Inhibition of tyrosinase in mouse Melan-a cells assessed as decrease in L-DOPA Vmax at 240 uM by Lineweaver-Burk plot; format: cell-based
[4] = molecular target: T1, Tyrosinase (Mus musculus); assay: Inhibition of tyrosinase in mouse Melan-a cells after 3 days by L-DOPA oxidation assay in presence of 20 nM TPA melanogenesis inducer; format: cell-based
[5] = molecular target: T1, Tyrosinase (Mus musculus); assay: Inhibition of tyrosinase in mouse Melan-a cells after 3 days by L-DOPA oxidation assay in presence of 1 uM forskolin melanogenesis inducer; format: cell-based
[6] = molecular target: T1, Tyrosinase (Mus musculus); assay: Inhibition of tyrosinase in mouse Melan-a at 60 uM after 3 days by L-DOPA oxidation assay in presence of 1 uM forskolin melanogenesis inducer (reference value: 162%); design: scale not given: the % may be the effect or the level left
Melan-a [7] = assay: Effect on tyrosinase localization in mouse Melan-a cells assessed as endoplasmic reticulum trapping at 60 uM incubated for 3 days by confocal immunofluorescence microscopy; format: functional, cell-based
Melan-a [8] = assay: Effect on tyrosinase localization in mouse Melan-a cells assessed as lysosome at 60 uM incubated for 3 days by confocal immunofluorescence microscopy; format: functional, cell-based
Melan-a [9] = assay: Effect on tyrosinase maturation in mouse Melan-a cells assessed as immature Endo H-sensitive form measured in endoplasmic reticulum using forskolin-supplemented medium at 60 to 120 uM by Western blotting analysis; format: functional, cell-based
[10] = Suppression of MITF expression in mouse Melan-a cells using forskolin-supplemented medium incubated for 1 day by Western blotting analysis; format: functional, cell-based
[11] = Suppression of TRP1 expression in mouse Melan-a cells using forskolin-supplemented medium at 60 to 120 uM incubated for 1 day by Western blotting analysis; format: functional, cell-based
Melan-a [12] = assay: Suppression of tyrosinase/TRP-1 complex formation in mouse Melan-a cells using forskolin-supplemented medium at 120 uM incubated for 3 days by Western blotting analysis; format: functional, cell-based

Row | inhibition [1] | Ki (Tyrosinase [2]) | Ki (Tyrosinase [3]) | inhibition [4] | inhibition [5] | Activity [6] | Compound | Activity (Melan-a [7]) | Activity (Melan-a [8]) | Activity (Melan-a [9]) | inhibition [10] | inhibition [11] | inhibition (Melan-a [12])
1 | Dose-dependent effect | 2800 µM | 2500 µM | Dose-dependent effect | Dose-dependent effect | 103% | OC[C@H]1O[C@@H](Oc2c(O)cc(O)cc2/C=C/c2ccc(O)cc2)[C@H](O)[C@@H](O)[C@@H]1O | inactive | inactive | inactive | Dose-dependent effect | inactive | Active
2 |  | 2900 µM |  |  |  |  | Oc1ccc(/C=C/c2cc(O)cc(O)c2)cc1 [RESVERATROL] |  |  |  |  |  | 

— ChEMBL document CHEMBL3286214, “Tyrosinase inhibitory activity of a glucosylated hydroxystilbene in mouse melan-a melanocytes” (J Nat Prod, 2014)
